SMILES strings stand for the structures.

This is an account of results in paper PMC7143582, “Functional Characterization of Sex Pheromone Receptors in the Fall Armyworm (Spodoptera frugiperda)” (Insects, 2020).

One assay has as its system T1, SfruOR16.
T1 construct: gene OR16; full-length ORF; with SfruORco
In words: two-electrode voltage clamp, Xenopus oocytes co-expressing SfruOR16/ORco, dose-response. It is filed as cell-based, Spodoptera frugiperda. For orientation: In two-electrode clamp one electrode senses voltage and the other passes current.

Another assay relates to T2, SfruOR13.
T2 construct: gene OR13; full-length ORF; with SfruORco
Put plainly: two-electrode voltage clamp, Xenopus oocytes co-expressing SfruOR13/ORco, dose-response. In kind it is cell-based, Spodoptera frugiperda.

One may read the EC50 as the concentration giving half of the maximal effect. As for `CCCC/C=C\CCCCCCCCO` [Z9-14:OH, (Z)-9-tetradecen-1-ol], the half-maximal effective concentration (EC50) with SfruOR16 was found to be 16.9 µM.

`CCCC/C=C\CCCCCCCCOC(C)=O` [Z9-14:OAc] showed a concentration for a half-maximal effect (EC50) in the assay with SfruOR13 of 6.08 µM.
